In publication PMC10257291, “Biological activities of extracts and compounds from Thai Kae-Lae (Maclura cochinchinensis (Lour.) Corner)” (BMC Complementary Medicine and Therapies, 2023):
In brackets after ≈: the same amount, converted by molar mass.

Assays:
[1] = RBC haemolysis induction; conditions: human, 2% red blood cell suspension
Description: The whole blood samples were obtained from normal volunteers. Red blood cells were separated by centrifugation and washed 2 times with 0.9% NaCl. Then, 2% RBC suspension was incubated with crude fractional extracts and compounds at 37 °C for 30 min. Triton-X 100 (2%) and NaCl (0.9%) were positive and negative controls, respectively. Then, the supernatant was collected, and haemoglobin concentration was measured by spectrophotometry at 540 nm. The haemolysis induction was calculated using the following equation:5 %Haemolysisinduction=Absorbance of sample/Absorbance of positive contr×100

[2] = ABTS assay; conditions: compared in words
Description: Briefly, the sample (20 μL) was mixed with of the ABTS^•^+ solution (180 μL) that had been prepared overnight. The combined mixture was incubated at room temperature (25 °C) for 5 min before assessing the UV absorbance at 750 nm with a microplate reader (Spectrostar Nano, BMG Labtech GmbH, Ortenberg, Germany). The findings were described as Trolox equivalent antioxidant capacity (TEAC). All experiments were conducted in triplicate.

[3] = test system: IL-2; assay: IL-2 secretion in PHA-stimulated PBMCs (ELISA); assay type: cell-based, human; conditions: sample at IC20 value, vs dexamethasone 1 μg/mL
Text: Mouse monocyte macrophage RAW 264.7 cells (American Type Culture Collection, […]-71) were stimulated with lipopolysaccharide (LPS) or phytohemagglutinin (PHA). The LPS treated RAW 264.7 cells served as a vehicle control, of which the NO production, and the secreted cytokines were defined as 100%, whereas a negative control was non-treated RAW 264.7 cells. Dexamethasone (an anti-inflammatory drug) was used as a positive control. PBMCs (1 × 10^5 cells/well in RPMI-1640 for IL-2) and Raw cells (1 × 10^5 cells/well in DMEM for TNF-α) were seeded for 24 h in a CO2 incubator set at 37 °C and 5% CO2/95% humidified air. Then cells were treated with […] fractional extracts (IC20 value) or pure compounds (IC20 value), or dexamethasone (1 μg/mL) were added. Following 2-h of incubation in a CO2 incubator, LPS was treated for a final dose of 1 μg/mL under conditions of TNF-α measurement. In contrast, PHA was added to induce inflammation in IL-2 measurement. After 24 h, the media were removed and centrifuged at 13,500 × g for 10 min and 100 μL of the supernatant was analysed by the protocol of R&D Systems, Minneapolis, MN, USA using ELISA technique. The absorbance was measured at 450 nm and corrected with the reference wavelength of 570 nm (Beckman CoulterDTX880, Fullerton, CA, USA). Viability of PBMCs and RAW 264.7 cells was also determined using MTT assay as described previously. IL-2 and TNF-α secretion inhibitions were calculated as bellow:4 %Cytokineinhibition=A-B/A×100 A is the optical density of the mixture without the sample, while B is the optical density of the mixture with the sample. Dexamethasone was a positive control. All experiments were done in triplicate.

[4] = test system: K562 cells; assay: Rate of proliferation, K562 cells; assay type: cell-based, human; conditions: for decrease of rate of proliferation, K562 cells: IC20 value, 24 and 48 h (time-response), vs control; for rate of cell proliferation, K562 cells (in words): concentrations IC10 − IC20 values, 48 h
Description: (§1) According to the principle of trypan blue exclusion, viable cells with intact membranes can exclude trypan blue dye, while dead cells with compromised membranes are stained by the trypan blue dye solution. A cell suspension and trypan blue dye solution (0.2%) were mixed, and viable and dead cells were counted under microscope using a hemacytometer. Then, the percentage of viable cells was calculated. KG-1a, EoL-1 and K562 cells were cultured with crude fractional extracts and active pure compounds at various concentrations (10 − 20% growth inhibition; IC10 − IC20 values) of each extract for 48 h, at a 20% growth inhibition (IC20 value) of each extract for 24 and 48 h. Following incubation, cells were harvested, and the total cell number was counted using trypan blue exclusion method. Three independent experiments were plotted as a dose–response curve and compared with the vehicle control. Meanwhile, the total cell number of each cell line after fractional extract and pure compound treatments at 24 and 48 h were calculated and plotted as a time-response curve. Slopes from each graph were considered as the rate of cell proliferation.

[5] = test system: EoL-1 cells; assay: Cytotoxicity by MTT assay in EoL-1 cells; assay type: cell-based; conditions: Homo sapiens, EOL1, 48 h, read-out: IC50 values (mean ± SD) EoL-1
Description: (§2) Leukaemic cell lines including KG-1a (leukaemic stem cell-like cell line with stem cell population), EoL-1 (human […] leukaemic cell line), and K562 (human erythroid leukaemic cell line) were cultured as previously described. The MTT (3-(4,5-dimethylthiazol-2-yl)-2,5-diphenyltetrazolium bromide) assay was used to determine the cytotoxicity of […] extracts and active compounds on leukaemic cells. The method was described previously. K562 (1.0 × 10^5 cells/mL), EoL-1 (3.0 × 10^5 cells/mL), and KG-1a (2.0 × 10^5 cells/mL) were added samples and then incubated for 48 h. The percentage of surviving cells was calculated using the following equation: 1 %Cellviability=Meanabsorbanceintestwell/[…] 50% inhibitory concentration (IC50) was determined as the lowest concentration that inhibited cell growth by 50% compared with the untreated control.

[6] = test system: KG-1a cells; assay: Cytotoxicity by MTT assay in KG-1a cells; assay type: cell-based; conditions: Homo sapiens, 48 h, read-out: IC50 values (mean ± SD) KG-1a
Description: as §2

[7] = test system: K562 cells; assay: Cytotoxicity by MTT assay in K562 cells; assay type: cell-based; conditions: Homo sapiens, 48 h, read-out: IC50 values (mean ± SD) K562
Description: as §2

[8] = test system: EoL-1 cells; assay: Rate of proliferation, EoL-1 cells; assay type: cell-based, human; conditions: for decrease of rate of proliferation, EoL-1 cells: IC20 value, 24 and 48 h (time-response), vs control; for rate of cell proliferation, EoL-1 cells (in words): concentrations IC10 − IC20 values, 48 h
Description: as §1

[9] = test system: RAW 264.7 cells; assay: RAW 264.7 cell viability by MTT assay; assay type: cell-based; conditions: Mus musculus, RAW264.7, read-out: IC20 values (concentrations at 80% of RAW 264.7 cells)
Description: Mouse monocyte macrophage RAW 264.7 cells (American Type Culture Collection, […]-71) were stimulated with lipopolysaccharide (LPS) or phytohemagglutinin (PHA). The LPS treated RAW 264.7 cells served as a vehicle control, of which the NO production, and the secreted cytokines were defined as 100%, whereas a negative control was non-treated RAW 264.7 cells. Dexamethasone (an anti-inflammatory drug) was used as a positive control. RAW 264.7 cell viability was also determined with the assay kit using MTT assay. The supernatant was removed, and MTT was added. After 2 h in a CO2 incubator, the supernatant was removed, and the formazan crystal were dissolved with DMSO. The optical density was measured at 578 nm and corrected with the reference wavelength of 630 nm using a multimode detector (Beckman CoulterDTX880, Fullerton, CA, USA). NO inhibitions were calculated using the following equation: […]

[10] = test system: PBMCs; assay: Cytotoxicity of PBMCs by MTT assay; assay type: cell-based; conditions: Homo sapiens, PBMC, 48 h, normal PBMCs, read-out: IC50 values (mean ± SD) PBMCs
Description: Method was done as previously described. Briefly, peripheral blood mononuclear cells (PBMCs) were obtained from healthy donors using Ficoll-Hypaque density-gradient centrifugation using Lymphoprep™ solution (Axis-Shield, Oslo, Norway). The PBMCs (1 × 10^6 cells/mL) were cultured in complete RPMI-1640 medium in 96-well plates overnight in a CO2 incubator. […] Then cells were further incubated for 48 h. The survival rate of cells was assessed using the MTT assay.

Work on `O=c1c(O)c(-c2ccc(O)cc2O)oc2cc(O)cc(O)c12` [Morin, 2’,3,4’,5,7-pentahydroxyflavonone] yielded a hemolysis at 30 min, 50 μg/mL [1] of 9.39 ± 1.34%, a hemolysis at 30 min, 100 μg/mL [1] of 9.82 ± 1.09% and a hemolysis at 30 min, 150 μg/mL [1] of 10.2 ± 1%. For the same compound, the “TEAC (ABTS antioxidant activity)” value [2] was “comparable TEAC and EC1 values with those of ascorbic acid”, the IL-2 inhibition [3] was “suppressed IL-2 significantly better than dexamethasone” and the “decrease of rate of proliferation, K562 cells” value (from here on “decrease of rate … K562 cells”) [4] was “decrease the proliferation rate”. The “rate of cell proliferation, K562 cells (in words)” value (from here on “rate … K562 cells (in words)”) [4] was “significant difference at concentrations of 70, 80, and 90 µg/mL”, the IC50 [5] was 18.4 ± 1.6 µg/mL (≈ 60.7 µM) and the IC50 [6] was > 100 µg/mL. The IC50 [7] was > 100 µg/mL, the “decrease of rate of proliferation, EoL-1 cells” value (shortened to “decrease of rate … EoL-1 cells”) [8] was “decrease the proliferation rate” and the IC20 [9] was 62.4 ± 7.44 µg/mL (≈ 206 µM). For the same compound, the IC50 [10] was > 100 µg/mL.
Work on `O=c1c(O)c(-c2ccc(O)c(O)c2)oc2cc(O)cc(O)c12` [Quercetin, quercetin] yielded a hemolysis at 30 min, 10 μg/mL [1] of 8.51 ± 0.86%, a hemolysis at 30 min, 50 μg/mL [1] of 8.85 ± 0.21% and a hemolysis at 30 min, 100 μg/mL [1] of 8.74 ± 0.26%. The “TEAC (ABTS antioxidant activity)” value [2] was “comparable TEAC and EC1 values with those of ascorbic acid”, the IL-2 inhibition [3] was “suppressed IL-2 significantly better than dexamethasone” and the “decrease of rate … K562 cells” value [4] was “significantly decreasing rates of proliferation”. The “rate … K562 cells (in words)” value [4] was “significantly decreasing rate of cell proliferation”, the IC50 [5] was 5.89 ± 0.46 µg/mL (≈ 19.5 µM) and the IC50 [6] was 72.6 ± 7.45 µg/mL (≈ 240 µM). For the same compound, the IC50 [7] was > 100 µg/mL, the “decrease of rate … EoL-1 cells” value [8] was “significantly decreasing rates of proliferation” and the “rate of cell proliferation, EoL-1 cells (in words)” value [8] was “significantly decreasing rate of cell proliferation”. The IC20 [9] was 35.5 ± 6.49 µg/mL (≈ 118 µM) and the IC50 [10] was > 100 µg/mL.
`Oc1ccc(/C=C/c2cc(O)cc(O)c2)cc1` [Resveratrol, resveratrol] showed a hemolysis at 30 min, 10 μg/mL [1] of 8.96 ± 1.83%, a hemolysis at 30 min, 20 μg/mL [1] of 8.58 ± 0.67% and a hemolysis at 30 min, 40 μg/mL [1] of 8.95 ± 0.21%. For the same compound, the IL-2 inhibition [3] was “suppressed IL-2 significantly better than dexamethasone”, the “decrease of rate … K562 cells” value [4] was 93.20% and the “rate … K562 cells (in words)” value [4] was “significantly decreasing rate of cell proliferation”. The IC50 [5] was 5.49 ± 0.29 µg/mL (≈ 24.1 µM), the IC50 [6] was 20.7 ± 2.65 µg/mL (≈ 90.7 µM) and the IC50 [7] was 41.6 ± 1.92 µg/mL (≈ 182 µM). For the same compound, the “decrease of rate … EoL-1 cells” value [8] was 95.45%, the “rate of cell proliferation, EoL-1 cells (in words)” value [8] was “significantly decreasing rate of cell proliferation” and the IC20 [9] was 3.4 ± 0.2 µg/mL (≈ 14.9 µM). The IC50 [10] was 44 ± 9.7 µg/mL (≈ 193 µM).
